Assay results reported in patent publication US20240317762A1, “PHTHALAZINONE-BASED PARP-1 INHIBITORS” (Oregon Health & Science University, priority 2021, published 2024).

Key:
[1] = tested on: pan-nuclear γH2AX in HEK 293T cells; assay: γH2AX immunofluorescence; type: cell-based, human; details: for reduction of AZ0108-induced pan-nuclear γH2AX / increase of AZ0108-induced pan-nuclear γH2AX: kinase inhibitor co-treated with AZ0108
Method: HEK 293T or HEK 293 PARP-1 KO cells were seeded onto poly-d-lysine treated glass coverslips and treated with indicated concentrations of inhibitors for 18 hours. Cells were then washed with 1×PBS and fixed using 4% Sucrose/4% Paraformaldehyde in PBS for 20 minutes. After three washes in 1×PBS, cells were permeabilized in 0.3% Triton X-100 in PBS for 5 minutes followed by an additional three washes in 1×PBS. Coverslips were blocked in 3% BSA/0.1% Triton X-100 in PBS for 1 hour and then placed in primary anti-rabbit phosphoH2Ax antibody (1:200, Cell Signaling) overnight at 4° C. The next morning, cells were washed three times in 1×PBS and treated with blocking solution, 3% BSA/0.1% Triton X-100 in PBS, for 30 minutes before being placed in secondary anti-rabbit Alexa Fluor 647 (1:1000 Jackson Immuno) for 1 hour at RT. After three subsequent 1×PBS washes, coverslips were mounted using ProLong Gold antifade reagent with DAPI (Invitrogen). All immunofluorescence images were taken on a Zeiss ApoTome2 on Axiolmager and analyzed using Zeiss software. Mean intensity of the Alexa Fluor 647 signal was measured after imposing DAPI masks over the nucleus of each cell. All cells within a 20× image, was analyzed (˜3000 cells/condition).
Cell are stained for DAPI and γH2AX. Scale bar indicates 50 μm. FIG. 2B) Quantification of panel a. […] Error bars represent SEM. […] Error bars represent SEM. […] Error bars represent SEM.

[2] = tested on: Ewing sarcoma cell line EW-8; assay: ES-8 viability screen (CellTiter-Glo); type: cell-based; details: for Fold Difference to Pip6: ratio of EC50 values; for EC50: viability, 72 h
Method: Cell viability was measured using the CellTiter-Glo (Promega, G7573) assay and read using an Envision (PerkinElmer) plate reader. Compound source plates (96-well) were prepared by solubilizing each drug in DMSO to a maximum concentration of 1-50 mM, then arraying samples in 10-point dose-response with 3-fold dilution. Positive and negative controls (staurosporine at 10 mM and DMSO, respectively) were added to the source plates. Drug was transferred from the source plate to the assay plate using a Biomek FX (Beckman Coulter) liquid handler equipped with a pin tool which transferred ˜100 nl into a final volume of 100 μl, resulting in ˜1000-fold dilution. At least two biological replicates (assay performed on different day with same drug plate and independent cell preparation) were obtained for each drug. To analyze the assay, the relative light unit signal in each well was first log 2 transformed, then normalized by subtracting the mean of the negative controls wells on each plate.
FIGS. 6A-6E. […] 0.1 μM ad-olaparib (chemical structure indicated in panel a) was added to the cells for 1 hour before undergoing a UV treatment for 5 minutes in cold PBS. Cells were lysed and sonicated in PBS (1% Triton X-100+1% SDS), clicked with TAMRA-azide and run out on SDS-PAGE. The gel was imaged for TAMRA and probed for PARP-1 (Bethyl Laboratories), and alpha-tubulin (X). FIGS. 6B, 6D) Quantification of western blot images. TAMRA or ADPr values are normalized to PARP-1 within each replicate and plotted as percentage compared to DMSO. Error bars indicate SEM (n=3-4). Statistical significance of off-rate calculated via multiple t-tests (p<0.05). […] Cells were subsequently treated with PARGi (10 μM) for 30 minutes, lysed using RIPA buffer, run out on SDS-PAGE, and probed for ADPr (Cell Signaling) and PARP-1 (Bethyl Laboratories). FIG. 6E) ES-8 cells were treated with indicated concentration of inhibitors for 72 hours before measuring cell viability using the CellTiter-Glo kit (Promega G7573). IC50 values were calculated using R statistical software.

HEK 293T cells [3] = assay: cell proliferation (MTT) assay; type: cell-based, human; details: MTT, 72 h; for EC50: Homo sapiens, HEK-293T, read-out: EC50 cell growth
Method: HEK 293T or HEK 293 PARP-1 KO cells were seeded in a 96 well plate at 1000-2000 cells per well. Following an overnight incubation, MTT reagent, 3-(4,5-dimethylthiazol-2-yl)-2,5-diphenyltetrazolium bromide, or a dosage curve of indicated inhibitor was added to each well in quadruplicate. Following a 3-hour incubation at 37° C., wells containing MTT reagent, were aspirated and lysed with 100 μl DMSO. These wells acting as a no growth control were collected, saved @ −20° C., and replaced with 100 μl water. The plate was placed back into the incubator for a total of 72 hours of inhibitor treatment prior to MTT reagent being added for a final time. Following a 3 hour incubation with the reagent, wells were aspirated, and 100 μl DMSO were added to each well, while the no growth control sample was added back to the plate. Absorbance was read on a SpectraMaxi3 plate reader (Molecular Devices). Percent growth was calculated for analysis. Statistical significance was assigned using individual t-tests between conditions for each inhibitor dosage.
(§1) Error bars represent SEM. […] Error bars represent SEM. […] Error bars represent SEM.

[4] = tested on: Ser345 phosphorylation of Chk1 in HEK 293 cells; assay: western blot analysis of phosphorylation of Chk1; details: co-treatment with AZ0108
[5] = tested on: PARP-1 (full-length WT) (Homo sapiens); assay: FP; details: 5 uM AZ0108 increased affinity 4-fold over no inhibitor; olaparib only modest effect
PARP-1 [6] = target: T1, PARP-1 (Homo sapiens, UniProt P09874); assay: in vitro PARP-1 auto-PARylation assay (SRPK2 plate assay); type: biochemical; set-up: The full-length WT PARP-1 protein used in these assays; made in house; details: read-out: IC50 against PARP-1 catalytic activity (auto-PARylation)
T1 sequence (P09874 whole entry): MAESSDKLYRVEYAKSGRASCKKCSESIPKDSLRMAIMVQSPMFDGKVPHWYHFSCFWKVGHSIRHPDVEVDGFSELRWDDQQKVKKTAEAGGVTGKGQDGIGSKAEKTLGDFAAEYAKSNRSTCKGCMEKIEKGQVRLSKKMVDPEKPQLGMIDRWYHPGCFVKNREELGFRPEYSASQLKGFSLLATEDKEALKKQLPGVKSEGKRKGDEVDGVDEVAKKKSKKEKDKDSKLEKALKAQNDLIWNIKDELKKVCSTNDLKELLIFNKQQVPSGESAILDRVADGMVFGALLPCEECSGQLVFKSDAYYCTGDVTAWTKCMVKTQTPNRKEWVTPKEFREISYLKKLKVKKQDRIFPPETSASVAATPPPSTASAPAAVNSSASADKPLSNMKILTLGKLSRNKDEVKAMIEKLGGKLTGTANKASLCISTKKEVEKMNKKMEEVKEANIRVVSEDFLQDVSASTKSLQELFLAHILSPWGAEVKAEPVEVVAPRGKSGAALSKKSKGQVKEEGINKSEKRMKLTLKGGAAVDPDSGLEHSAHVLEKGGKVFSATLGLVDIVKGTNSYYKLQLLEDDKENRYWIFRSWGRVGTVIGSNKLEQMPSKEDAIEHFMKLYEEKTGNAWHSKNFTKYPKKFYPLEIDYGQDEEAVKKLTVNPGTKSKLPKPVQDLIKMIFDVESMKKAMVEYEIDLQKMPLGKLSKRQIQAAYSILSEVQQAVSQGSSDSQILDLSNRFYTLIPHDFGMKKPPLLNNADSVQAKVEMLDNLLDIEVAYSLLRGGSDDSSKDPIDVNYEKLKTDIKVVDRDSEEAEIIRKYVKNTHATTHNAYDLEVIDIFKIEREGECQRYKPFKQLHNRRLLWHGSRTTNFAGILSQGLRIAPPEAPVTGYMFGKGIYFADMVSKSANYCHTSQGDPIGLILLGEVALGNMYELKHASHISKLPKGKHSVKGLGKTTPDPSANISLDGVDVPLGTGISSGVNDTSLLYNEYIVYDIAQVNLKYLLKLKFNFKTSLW
Method: IC50 SRPK2 Plate Assays were performed as previously described (21). Log(inhibitor) versus response curves were fit using non-linear regression with variable slope. Mean IC50 values for each compound were derived from a minimum of three separate replicates.

PARP-1 [7] = target: T1, PARP-1; assay: in vitro fluorescence polarization DNA competition assay; details: 25 μM compound; PARP-1 40 nM; nicked dumbbell DNA probe 20 nM
Method: The full-length WT PARP-1 protein used in these assays was purified as described previously (30).
An unlabeled competitor was added and the decrease in fluorescence polarization was measured across time.

HEK 293T cells [8] = assay: analysis of cell cycle (DAPI, flow cytometry); details: for G1 / G2 / S: DAPI intensity, 18 hours
Method: After the indicated treatments, cells were washed twice with 1× PBS, trypsinized off of the plate, and washed an additional 2 times with 1×PBS. Cells were then permeabilized using 70% cold ethanol while vortexing before incubating for 30 min at 4° C. Cells were then washed three times with 1×PBS and counted using a hemocytometer to create a final pellet of 1×10^6 cells in for each inhibitor condition. 500 μl of DAPI solution (1 μg/ml DAPI, 0.1% Triton X-100 in PBS) was added to each cell pellet and incubated on ice for 30 min before being analyzed by flow cytometry using a BD Canto II. All data was analyzed on FlowJo software, gating for 20,000 singlet events. Manual cell cycle gates were set onto the DMSO control data using Watson modeling as reference. These gates were applied to all treatment conditions to obtain quantitative analysis.
Error bars represent SEM. […] Caspase-Glo 3/7 reagent was added to each well and luminescence was read after 30 minutes. […] Error bars represent SEM. […] Cell cycle was analyzed by flow cytometry (20,000 singlet events) and cell cycle statistics were calculated in FlowJo software against DMSO Watson modeling (n=3). FIG. 3F) DNA synthesis was measured using EdU incorporation. […] EdU incorporation was labelled using TAMRA azide click-chemistry and imaged at 20×. Mean intensity of TAMRA signal within DAPI masks analyzed using Zen software (n>3900 cells over 2 replicates). Values are normalized to the average DMSO control within each replicate. Error bars represent SEM. Statistical significance calculated via one-way ANOVA with Tukey's multiple comparisons test (p<0.05).

[9] = tested on: caspase-3/7 activity in HEK 293 cells; assay: cell apoptosis assay (Caspase-Glo 3/7); type: cell-based, human; details: 1 μM, 72 hours
Method: HEK 293 or HEK 293 PARP-1 KO cells were seeded in a 96 well plate at 1000-2000 cells per well, a media only “blank” was also included. Following an overnight incubation, cells were treated with 1 μM of indicated inhibitors. “Blank” wells were treated with DMSO. Following a 72 hour inhibitor treatment, the Caspase-Glo 3/7 Assay was completed following the manufacturer instructions (Promega, #G8091). Luminescence was read on a SpectraMax i3 plate reader (Molecular Devices).
as §1

Oc1c2ccccc2c2c3c(cccc13)N=N2 [SP600125]
reduction of AZ0108-induced pan-nuclear γH2AX [1]: ~2 fold

O=c1cc(N2CCOCC2)oc2c(-c3cccc4c3sc3ccccc34)cccc12 [NU7441]
increase of AZ0108-induced pan-nuclear γH2AX [1]: ~1.3 fold

O=c1cc(-c2cccc3c2Sc2ccccc2S3)oc(N2CCOCC2)c1 [KU-55933]
reduction of AZ0108-induced pan-nuclear γH2AX [1]: ~2 fold

CCc1c2c(nc3ccc(O)cc13)-c1cc3c(c(=O)n1C2)COC(=O)[C@]3(O)CC [SN-38]
Fold Difference to Pip6 [2]: ~3 | EC50 [2]: 0.00075 µM

NC(=O)c1cccc2cn(-c3ccc([C@@H]4CCCNC4)cc3)nc12 [Niraparib]
Fold Difference to Pip6 [2]: 5693 | EC50 [2]: 1.38 µM

Cn1ncnc1[C@H]1c2n[nH]c(=O)c3cc(F)cc(c23)N[C@@H]1c1ccc(F)cc1 [Talazoparib]
Fold Difference to Pip6 [2]: 59 | EC50 [2]: 0.0142 µM

O=C(c1cc(Cc2n[nH]c(=O)c3ccccc23)ccc1F)N1CCn2c(nnc2C(F)(F)F)C1 [Pip3, 4-(4-Fluoro-3-(3-(trifluoromethyl)-5,6,7,8-tetrahydro-[1,2,4]triazolo[4,3-a]pyrazine-7-carbonyl)benzyl) phthalazin-1(2H)-one]
potency in inhibiting cell growth compared with AZ0108 (HEK 293T cells [3]): substantially more potent than AZ0108

CS(=O)(=O)c1ccc(-c2cnc(N)c(C(=O)Nc3ccccc3)n2)cc1 [VE-821]
increase of AZ0108-induced pan-nuclear γH2AX [1]: ~1.3 fold | effect on AZ0108-induced Ser345 phosphorylation of Chk1 [4]: significantly inhibited

dumbbell DNA probe with central nick
binding signal [5]: 4 fold

O=C(c1cc(Cc2n[nH]c(=O)c3ccccc23)ccc1F)N1CCn2cnnc2C1 [Pip1, 4-(4-Fluoro-3-(5,6,7,8-tetrahydro-[1,2,4]triazolo[4,3-a]pyrazine-7-carbonyl)benzyl)phthalazin-1(2H)-one]
EC50 (HEK 293T cells [3]): ~6 µM | IC50 (PARP-1 [6]): 0.0039 µM | exchange of the PARP-1:labled DNA complex with an unlabeled DNA competitor (PARP-1 [7]): very little impact

Cc1cn([C@H]2C[C@H](O)[C@@H](CO)O2)c(=O)[nH]c1=O [Thymidine]
G1 (HEK 293T cells [8]): 2.79% | G2 (HEK 293T cells [8]): 7.06% | S (HEK 293T cells [8]): 76.3%

CNCc1ccc(-c2[nH]c3cc(F)cc4c3c2CCNC4=O)cc1 [Rucaparib]
Fold Difference to Pip6 [2]: 22998 | EC50 [2]: 5.57 µM

CC(F)(F)c1nnc2n1CCN(C(=O)c1cc(Cc3n[nH]c(=O)c4ccccc34)ccc1F)C2 [Pip5, 4-(4-Fluoro-3-(3-(1,1-difluoroethyl)-5,6,7,8-tetrahydro-[1,2,4]triazolo[4,3-a]pyrazine-7-carbonyl)benzyl)phthalazin-1(2H)-one]
potency in inhibiting cell growth compared with AZ0108 (HEK 293T cells [3]): substantially more potent than AZ0108

Cc1nnc2n1CCN(C(=O)c1cc(Cc3n[nH]c(=O)c4ccccc34)ccc1F)C2 [Pip2, 4-(4-Fluoro-3-(3-methyl-5,6,7,8-tetrahydro-[1,2,4]triazolo[4,3-a]pyrazine-7-carbonyl)benzyl) phthalazin-1(2H)-one]
exchange of the PARP-1:labled DNA complex with an unlabeled DNA competitor (PARP-1 [7]): very little impact

CC(C)c1nnc2n1CCN(C(=O)c1cc(Cc3n[nH]c(=O)c4ccccc34)ccc1F)C2 [Pip4, 4-(4-Fluoro-3-(3-isopropyl-5,6,7,8-tetrahydro-[1,2,4]triazolo[4,3-a]pyrazine-7-carbonyl)benzyl) phthalazin-1(2H)-one]
IC50 (PARP-1 [6]): 0.0175 µM

C[C@]1(c2nc3c(C(N)=O)cccc3[nH]2)CCCN1 [Veliparib]
Fold Difference to Pip6 [2]: 245827 | EC50 [2]: 59.6 µM

O=C(c1cc(Cc2n[nH]c(=O)c3ccccc23)ccc1F)N1CCN(C(=O)C2CC2)CC1 [Olaparib]
EC50 (HEK 293T cells [3]): ~10 µM | G1 (HEK 293T cells [8]): 19.4% | G2 (HEK 293T cells [8]): 9.50% | S (HEK 293T cells [8]): 54.0% | effect on cell cycle (HEK 293T cells [8]; FACS, DAPI fluorescence): did not alter the cell cycle | pan-nuclear γH2AX induction ([1]; HEK 293T cells, 18 hours): did not induce either pan-nuclear γH2AX or γH2AX foci | effect of co-treatment on AZ0108-induced pan-nuclear γH2AX ([1]; co-treatment with AZ0108): reversed the effects of AZ0108 on pan-nuclear γH2AX | reduction of caspase-3/7 activity [9]: did not significantly affect
